Tests used:
[1] = target: T1, human adrenergic-α2A receptor (Homo sapiens, UniProt P08913); assay: Radioligand binding experiment for hα2A-adrenergic receptor ([3H]raulwolscine); settings: [3H]raulwolscine 1 nM, 60 minutes at 25° C.; for IC50: read-out: h-α2A pIC50 (converted)
T1 construct: expressed in transfected cells; host or cells: CHO cells, stably transfected; membrane preparation
T1 sequence (P08913 1-465): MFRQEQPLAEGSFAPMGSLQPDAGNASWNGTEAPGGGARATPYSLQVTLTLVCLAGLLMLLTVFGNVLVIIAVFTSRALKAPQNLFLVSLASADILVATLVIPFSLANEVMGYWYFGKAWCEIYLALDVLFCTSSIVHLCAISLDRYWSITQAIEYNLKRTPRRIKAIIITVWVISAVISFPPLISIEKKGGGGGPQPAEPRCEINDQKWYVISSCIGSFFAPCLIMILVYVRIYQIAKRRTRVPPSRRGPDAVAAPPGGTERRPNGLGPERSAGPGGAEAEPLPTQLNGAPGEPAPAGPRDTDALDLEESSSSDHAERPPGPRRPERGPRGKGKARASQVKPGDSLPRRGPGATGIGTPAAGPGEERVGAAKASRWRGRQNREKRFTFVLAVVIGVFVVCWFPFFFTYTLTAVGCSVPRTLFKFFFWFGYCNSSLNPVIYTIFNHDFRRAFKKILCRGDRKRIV
Method: (§1) The interaction of the compounds of Formula (I) with α2C-adrenoceptor receptors was assessed in in vitro radioligand binding experiments. In general, a low concentration of a radioligand with a high binding affinity for a particular receptor or transporter is incubated with a sample of a tissue preparation enriched in a particular receptor or transporter or with a preparation of cells expressing cloned human receptors in a buffered medium. During the incubation, the radioligand binds to the receptor or transporter. When equilibrium of binding is reached, the receptor bound radioactivity is separated from the non-bound radioactivity, and the receptor- or transporter-bound activity is counted. The interaction of the test compounds with the receptor is assessed in competition binding experiments. Various concentrations of the test compound are added to the incubation mixture containing the receptor- or transporter preparation and the radioligand. The test compound in proportion to its binding affinity and its concentration inhibits binding of the radioligand. The radioligand used for […] receptor binding was [^3H]-raulwolscine.
(§2) CHO cells, stabile transfected with human adrenergic-α2A, -α2B or α2C receptor cDNA, were cultured in Dulbecco's Modified Eagle's Medium (DMEM)/Nutrient mixture Ham's F12 (ratio 1:1)(Gibco, Gent-Belgium) supplemented with 10% heat inactivated fetal calf serum (Life Technologies, Merelbeke-Belgium) and antibiotics (100 IU/ml penicillin G, 100 μg/ml streptomycin sulphate, 110 μg/ml pyruvic acid and 100 μg/ml L-glutamine). One day before collection, cells were induced with 5 mM sodiumbutyrate. Upon 80-90% of confluence, cells were scraped in phosphate buffered saline without Ca^2+ and Mg^2+ and collected by centrifugation at 1500×g for 10 minutes. The cells were homogenised in Tris-HCl 50 mM using an Ultraturrax homogenizer and centrifuged for 10 minutes at 23,500×g. The pellet was washed once by resuspension and rehomogenization and the final pellet was resuspended in Tris-HCl, divided in 1 ml aliquots and stored at −70° C.
(§3) Membranes were thawed and re-homogenized in incubation buffer (glycylglycine 25 mM, pH 8.0). In a total volume of 500 μl, 2-10 μg protein was incubated with [^3H]raulwolscine (NET-722) (New England Nuclear, USA) (1 nM final concentration) with or without competitor for 60 minutes at 25° C. followed by rapid filtration over GF/B filter using a Filtermate196 harvester (Packard, Meriden, Conn.). Filters were rinsed extensively with ice-cold rinsing buffer (Tris-HCl 50 mM pH 7.4). Filter-bound radioactivity was determined by scintillation counting in a Topcount (Packard, Meriden, Conn.) and results were expressed as counts per minute (cpm). Non-specific binding was determined in the presence of 1 μM oxymetazoline for hα2A- and hα2B receptors and 1 μM spiroxatrine for hα2C receptors.
(§4) Data from assays in the presence of compound were calculated as a percentage of total binding measured in the absence of test compound. Inhibition curves, plotting percent of total binding versus the log value of the concentration of the test compound, were automatically generated, and sigmoidal inhibition curves were fitted using non-linear regression. The pIC50 values of test compounds were derived from individual curves.

[2] = target: T2, human adrenergic-α2C receptor (Homo sapiens, UniProt P18825); assay: Radioligand binding experiment for hα2C-adrenoceptor ([3H]raulwolscine); settings: [3H]raulwolscine 1 nM, 60 minutes at 25° C.; for IC50: read-out: h-α2C pIC50 (converted)
T2 construct: expressed in transfected cells; host or cells: CHO cells, stably transfected; membrane preparation
T2 sequence (P18825 1-462): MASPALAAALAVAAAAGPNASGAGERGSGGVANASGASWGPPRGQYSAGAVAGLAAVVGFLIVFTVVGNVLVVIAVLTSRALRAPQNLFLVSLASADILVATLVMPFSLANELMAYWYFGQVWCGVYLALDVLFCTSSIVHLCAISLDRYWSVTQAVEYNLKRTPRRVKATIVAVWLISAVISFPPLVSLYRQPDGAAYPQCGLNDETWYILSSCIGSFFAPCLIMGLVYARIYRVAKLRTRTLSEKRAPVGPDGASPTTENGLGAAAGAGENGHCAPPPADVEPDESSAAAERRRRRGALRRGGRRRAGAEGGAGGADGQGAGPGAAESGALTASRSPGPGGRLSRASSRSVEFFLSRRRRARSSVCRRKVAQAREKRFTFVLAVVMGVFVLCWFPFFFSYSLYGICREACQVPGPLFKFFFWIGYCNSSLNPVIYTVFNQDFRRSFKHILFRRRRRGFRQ
Method: as §1, §2, §3, §4

5HT-transporter = target: T3, 5HT-transporter (Homo sapiens, UniProt P31645); assay: Binding experiment for the 5HT-transporter ([3H]paroxetine, human platelet membranes); settings: [3H]paroxetine 0.5 nM, 60 min at 25° C.; for IC50: read-out: h-5HTT pIC50 (converted)
T3 construct: Human platelet membranes (Oceanix Biosciences Corporation, Hanover, Md., USA) were thawed; tissue Oceanix Biosciences Corporation, Hanover, Md., USA; host or cells: human platelet membranes
Method: as §1
Human platelet membranes (Oceanix Biosciences Corporation, Hanover, Md., USA) were thawed, diluted in buffer (Tris-HCl 50 mM, 120 mM NaCl and 5 mM KCl) and quickly (max 3 s) homogenised with an Ultraturrax homogenizer. […] Incubation was stopped by rapid filtration of the incubation mixture over GF/B filters, pre-wetted with 0.1% polyethyleneamine, using a Filtermate196 harvester (Packard, Meriden, Conn.). Filters were rinsed extensively with ice-cold buffer and radioactivity on the filters was counted in a Topcount liquid scintillation counter (Packard, Meriden, Conn.). Data were expressed as cpm. Imipramine (at 1 μM final concentration) was used to determine the non-specific binding.
as §4

T3 sequence (P31645 whole entry): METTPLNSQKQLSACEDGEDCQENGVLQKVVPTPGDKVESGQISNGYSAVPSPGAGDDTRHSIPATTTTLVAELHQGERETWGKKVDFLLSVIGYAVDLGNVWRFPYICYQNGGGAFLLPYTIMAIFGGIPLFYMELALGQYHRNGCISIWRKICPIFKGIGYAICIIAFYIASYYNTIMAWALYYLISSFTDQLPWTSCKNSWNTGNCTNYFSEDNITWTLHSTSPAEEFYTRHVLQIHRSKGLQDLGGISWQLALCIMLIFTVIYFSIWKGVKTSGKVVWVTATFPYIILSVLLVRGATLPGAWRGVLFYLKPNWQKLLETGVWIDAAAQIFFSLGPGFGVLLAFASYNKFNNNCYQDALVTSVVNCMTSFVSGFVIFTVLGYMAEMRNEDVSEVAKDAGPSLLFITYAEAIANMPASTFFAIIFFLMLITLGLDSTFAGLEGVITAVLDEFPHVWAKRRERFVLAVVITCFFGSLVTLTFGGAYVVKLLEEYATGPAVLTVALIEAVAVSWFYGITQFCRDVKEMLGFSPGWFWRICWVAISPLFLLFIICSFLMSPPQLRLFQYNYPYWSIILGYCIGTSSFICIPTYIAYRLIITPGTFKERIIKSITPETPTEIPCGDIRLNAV

| Compound | IC50 [1] [nM] | IC50 [2] [nM] | IC50 (5HT-transporter) [nM] | h-α2A pIC50 [1] | h-α2C pIC50 [2] | h-5HTT pIC50 (5HT-transporter) |
| --- | --- | --- | --- | --- | --- | --- |
| O=C(Cn1ccnc(NC2CCN(Cc3ccc4ccccc4c3)CC2)c1=O)Nc1ccc(F)cc1 [1-65] | 158 | 39.8 | 158 | – | – | – |
| O=C(Cn1ccnc(NC2CCN(Cc3ccc4ccccc4c3)CC2)c1=O)NCc1ccc(F)cc1 [1-66] | 316 | 12.6 | 63.1 | – | – | – |
| O=c1c(NC2CCN(Cc3ccc4ccccc4c3)CC2)nccn1CCCNCc1ccccc1 [1-67] | 631 | 25.1 | 158 | – | – | – |
| O=C(Cn1ccnc(NC2CCN(Cc3ccc4ccccc4c3)CC2)c1=O)NCc1ccccc1 [1-68] | 200 | 20 | 158 | – | – | – |
| CN(Cc1ccccc1)C(=O)Cn1ccnc(NC2CCN(Cc3ccc4ccccc4c3)CC2)c1=O [1-69] | 200 | 20 | 50.1 | – | – | – |
| CN(Cc1ccccc1)Cc1ccc(-n2ccnc(NC3CCN(Cc4ccc5ccccc5c4)CC3)c2=O)cc1 [1-70] | – | – | – | 6.5 | 7.5 | 8.0 |
| O=C(Cn1ccnc(NC2CCN(Cc3ccc4ccccc4c3)CC2)c1=O)NCCc1ccccc1 [1-71] | 316 | 20 | 126 | – | – | – |
| O=C(Cn1ccnc(NC2CCN(Cc3ccc4ccccc4c3)CC2)c1=O)NCCCc1ccccc1 [1-72] | 200 | 31.6 | 63.1 | – | – | – |
| CC(C)(Cc1ccccc1)NC(=O)Cn1ccnc(NC2CCN(Cc3ccc4ccccc4c3)CC2)c1=O [1-73] | 398 | 39.8 | 158 | – | – | – |
| O=C(NCCCn1ccnc(NC2CCN(Cc3ccc4ccccc4c3)CC2)c1=O)c1ccccc1 [1-74] | 794 | 31.6 | 126 | – | – | – |
| O=C(Nc1cccc(-n2ccnc(NC3CCN(Cc4ccc5ccccc5c4)CC3)c2=O)c1)c1ccc(F)cc1 [1-75] | 100 | 63.1 | 3.98 | – | – | – |
| O=C(NCc1ccc(-n2ccnc(NC3CCN(Cc4ccc5ccccc5c4)CC3)c2=O)cc1)c1ccc(F)cc1 [1-76] | – | – | – | 6.2 | 8.1 | 8.2 |
| O=c1c(NC2CCN(Cc3ccc4ccccc4c3)CC2)nccn1CCCNCCOc1ccccc1 [1-77] | 398 | 25.1 | 63.1 | – | – | – |

Other lines, results leading:

| IC50 [1] [nM] | IC50 [2] [nM] | IC50 (5HT-transporter) [nM] | h-α2A pIC50 [1] | h-α2C pIC50 [2] | h-5HTT pIC50 (5HT-transporter) | Compound |
| --- | --- | --- | --- | --- | --- | --- |
| 251 | 2.51 | 3.16 | – | – | – | O=c1c(NC2CCN(Cc3ccc4ccccc4c3)CC2)nccn1-c1ccc(CNCC2CCCO2)c(F)c1 (stereo not drawn) [1-80] |
| 158 | 31.6 | 631 | – | – | – | O=C(Cn1ccnc(NC2CCN(Cc3ccc4ccccc4c3)CC2)c1=O)NCc1ccco1 [1-81] |
| 158 | 12.6 | 5.01 | – | – | – | O=c1c(NC2CCN(Cc3ccc4ccccc4c3)CC2)nccn1-c1ccc(CNCc2ccco2)cc1 [1-82] |
| – | – | – | 6.7 | 7.6 | 8.3 | Cc1ccc(CNCc2ccc(-n3ccnc(NC4CCN(Cc5ccc6ccccc6c5)CC4)c3=O)cc2)o1.Cl.Cl [1-83] |
| 200 | 10 | 3.16 | – | – | – | Cc1ccc(CNCc2ccc(-n3ccnc(NC4CCN(Cc5ccc6ccccc6c5)CC4)c3=O)cc2F)o1 [1-84] |
| 794 | 79.4 | 31.6 | – | – | – | Cc1ccc(CN(Cc2ccc(-n3ccnc(NC4CCN(Cc5ccc6ccccc6c5)CC4)c3=O)cc2)Cc2ccc(C)o2)o1 [1-85] |
| 251 | 25.1 | 25.1 | – | – | – | Cc1cc(CNC(=O)c2ccc(-n3ccnc(NC4CCN(Cc5ccc6ccccc6c5)CC4)c3=O)cc2)no1 [1-86] |
| 251 | 12.6 | 12.6 | – | – | – | Cc1cc(CNCc2ccc(-n3ccnc(NC4CCN(Cc5ccc6ccccc6c5)CC4)c3=O)cc2F)no1 [1-87] |
| 200 | 12.6 | 15.8 | – | – | – | O=c1c(NC2CCN(Cc3ccc4ccccc4c3)CC2)nccn1-c1ccc(NCCN2CCC(F)CC2)cc1 [1-89] |
| 251 | 12.6 | 7.94 | – | – | – | O=c1c(NC2CCN(Cc3ccc4ccccc4c3)CC2)nccn1-c1ccc(CNCc2ccccn2)cc1 [1-90] |
| 316 | 20 | 15.8 | – | – | – | O=c1c(NC2CCN(Cc3ccc4ccccc4c3)CC2)nccn1-c1ccc(CNCCN2CCOCC2)cc1 [1-93] |
| 631 | 50.1 | 2000 | – | – | – | O=C(Cn1ccnc(NC2CCN(Cc3ccc4ccccc4c3)CC2)c1=O)NCCN1CCOCC1 [1-94] |
| 398 | 20 | 6.31 | – | – | – | O=C(Cc1ccsc1)NCc1ccc(-n2ccnc(NC3CCN(Cc4ccc5ccccc5c4)CC3)c2=O)cc1 [1-95] |
| – | – | – | 7.1 | 8.3 | 8.0 | Cl.O=C(CCN1CCC(F)CC1)NCc1ccc(-n2ccnc(NC3CCN(Cc4ccc5ccccc5c4)CC3)c2=O)cc1F [1-96] |
| 501 | 3.98 | 12.6 | – | – | – | O=C(NCc1ccc(-n2ccnc(NC3CCN(Cc4ccc5ccccc5c4)CC3)c2=O)cc1)c1ccno1 [1-100] |
| 501 | 25.1 | 6.31 | – | – | – | O=C(NCc1ccc(-n2ccnc(NC3CCN(Cc4ccc5ccccc5c4)CC3)c2=O)cc1)c1ccncc1 [1-101] |
| 631 | 31.6 | 158 | – | – | – | O=C(CNCCCn1ccnc(NC2CCN(Cc3ccc4ccccc4c3)CC2)c1=O)c1coc2ccccc12 [1-103] |
| 200 | 20 | 126 | – | – | – | O=C(Cn1ccnc(NC2CCN(Cc3ccc4ccccc4c3)CC2)c1=O)N(Cc1ccccc1)c1ccccc1 [1-104] |
| 251 | 31.6 | 20 | – | – | – | O=C1CCCN1Cc1ccc(-n2ccnc(NC3CCN(Cc4ccc5ccccc5c4)CC3)c2=O)cc1 [2-01] |

From patent US20080269251A1, “Substituted Pyrazinone Derivatives as Alpha2C-Adrenoreceptor Antagonists” (priority 2005, published 2008)
